The values below come from patent publication US12234220B2, “Immunomodulatory compounds” (DANA-FARBER CANCER INSTITUTE, INC., priority 2018, dated 2025).

The structures appear in SMILES notation. Read-outs that look alike come from different tables or passages of the source.

This test deals with DDB1AB-CRBN (Homo sapiens, UniProt Q96SW2). The test can be described thus: Lenalidomide displacement assay (Atto565-Lenalidomide fluorescence polarization). The format is binding. The note with it: for binding affinity with CRBN, in words: fluorescence polarization assay, compared to lenalidomide control, FIG. 1A; for Ki: calculated from IC50 with probe Kd of 40 nM, competitive model, read-out: CRBN Binding Ki. As for the experimental part:
Compound titrations were incubated for 60 min at RT. The change in fluorescence polarization was monitored using a PHERAstar® FS microplate reader (BMG Labtech) for 1 h in 120 s cycles.

The mark [1] stands for this setting: Table 1, n=2, 10 nM Atto565-Lenalidomide probe, 100 nM DDB1AB-CRBN, read-out: CRBN Binding IC50.
Setting [2] is: Table 1, n=2, 10 nM Atto565-Lenalidomide probe, 100 nM DDB1AB-CRBN.
[3] abbreviates: refers to Tables 1 and 2, FIG. 1A/1B, read-out: IC50.

Sequence of DDB1AB-CRBN (Q96SW2 whole entry): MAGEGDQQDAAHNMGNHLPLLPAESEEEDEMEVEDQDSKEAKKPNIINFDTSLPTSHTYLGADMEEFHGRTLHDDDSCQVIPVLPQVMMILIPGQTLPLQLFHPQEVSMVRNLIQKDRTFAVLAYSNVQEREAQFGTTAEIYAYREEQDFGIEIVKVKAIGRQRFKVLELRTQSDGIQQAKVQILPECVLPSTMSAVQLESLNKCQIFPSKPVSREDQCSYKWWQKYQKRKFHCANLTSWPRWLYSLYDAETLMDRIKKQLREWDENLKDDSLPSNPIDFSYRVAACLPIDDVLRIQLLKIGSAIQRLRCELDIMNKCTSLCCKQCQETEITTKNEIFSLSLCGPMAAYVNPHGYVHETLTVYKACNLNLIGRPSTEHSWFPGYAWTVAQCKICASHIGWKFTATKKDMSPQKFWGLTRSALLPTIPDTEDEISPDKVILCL

On to `Nc1cccc(C(=O)NC2CCC(=O)NC2=O)n1` (stereo not drawn) [Compound 3, 6-amino-N-(2,6-dioxopiperidin-3-yl)picolinamide], for which the “binding affinity with CRBN, in words” value is “moderate binding affinity”. The “CRBN Binding, probe displacement at single concentration” value (“CRBN Binding, probe displacement” below) (at 100 μM) came to 30% at 100 μM. As for `O=C1CCC(NC(=O)c2cccc3cccnc23)C(=O)N1` (stereo not drawn) [Compound 8, N-(2,6-dioxopiperidin-3-yl)quinoline-8-carboxamide], the Ki (in general, the equilibrium dissociation constant of an inhibitor or competing ligand from its target) (Table 1) was 4 µM. The half-inhibitory concentration (IC50) (in general, the concentration that gives 50% inhibition) under setting [1] came to 14 µM. On to `O=C1CCC(NC(=O)Nc2ccc(O)cn2)C(=O)N1` (stereo not drawn) [Compound 28, 1-(2,6-Dioxopiperidin-3-yl)-3-(5-hydroxypyridin-2-yl)urea], for which the “CRBN Binding IC50” value under setting [2] was “inactive”. Consider `O=C1CCC(NC(=O)c2cccc3c(O)ccnc23)C(=O)N1` (stereo not drawn) [Compound 26, N-(2,6-dioxopiperidin-3-yl)-4-hydroxyquinoline-8-carboxamide], for which, where the note is “at 100 μM”, the “CRBN Binding, probe displacement” value is 50% at 100 μM and the “probe displacement” value was determined as 50%.

Regarding `Nc1cnc2c(C(=O)NC3CCC(=O)NC3=O)cccc2c1` (stereo not drawn) [Compound 25, 3-Amino-N-(2,6-dioxopiperidin-3-yl)quinoline-8-carboxamide], the Ki (Table 1) was 5 µM. The IC50 under setting [1] amounted to 17.5 µM. Regarding `O=C1CCC(NC(=O)c2cc(Cl)ccn2)C(=O)N1` (stereo not drawn) [Compound 4, 4-chloro-N-(2,6-dioxopiperidin-3-yl)picolinamide], the “binding affinity with CRBN, in words” value was “moderate binding affinity”. Further, the “CRBN Binding, probe displacement” value (at 100 μM) was found to be 30% at 100 μM. In the case of `Cn1cccc(C(=O)NC2CCC(=O)NC2=O)c1=O` (stereo not drawn) [Compound 20, N-(2,6-dioxopiperidin-3-yl)-1-methyl-2-oxo-1,2-dihydropyridine-3-carboxamide], the Ki (Table 1) is 66 µM. For the same compound, the IC50 under setting [1] came to 231 µM. Turning to `O=C1CCC(NC(=O)c2cccc3c2NCC3)C(=O)N1` (stereo not drawn) [Compound 30, N-(2,6-dioxopiperidin-3-yl)indoline-7-carboxamide], the “CRBN Binding, probe displacement” value (at 100 μM) turned out to be 50% at 100 μM. In the case of `O=C1CCC(NC(=O)c2ccc[nH]c2=O)C(=O)N1` (stereo not drawn) [Compound 19, N-(2,6-dioxopiperidin-3-yl)-2-oxo-1,2-dihydropyridine-3-carboxamide], the Ki (Table 1) is 15 µM. The half-inhibitory concentration (IC50) under setting [1] turned out to be 53 µM. `Nc1ccnc2c(C(=O)NC3CCC(=O)NC3=O)cccc12` (stereo not drawn) [Compound 24, 4-Amino-N-(2,6-dioxopiperidin-3-yl)quinoline-8-carboxamide]: where the note is “Table 1”, the inhibitory constant (Ki) is 2.2 µM. The 50% inhibitory concentration (IC50) under setting [3] turned out to be 7.7 µM. For the compound `O=C1CCC(NC(=O)Nc2cccc3c2NCC3)C(=O)N1` (stereo not drawn) [Compound 29, 1-(2,6-Dioxopiperidin-3-yl)-3-(indolin-7-yl)urea], the “CRBN Binding IC50” value under setting [2] is “inactive”.

As for `O=C1CCC(NC(=O)c2cccc(OCc3ccccc3)n2)C(=O)N1` (stereo not drawn) [Compound 1, 6-(benzyloxy)-N-(2,6-dioxopiperidin-3-yl)picolinamide], the Ki (Table 1) was 15.7 µM. Moreover, under setting [1], the IC50 turned out to be 55 µM.

As to `O=C1CCC(NC(=O)c2ccnc(NCc3ccccc3)n2)C(=O)N1` (stereo not drawn) [Compound 5, 2-(benzylamino)-N-(2,6-dioxopiperidin-3-yl)pyrimidine-4-carboxamide], the “binding affinity with CRBN, in words” value is “moderate binding affinity”. For the same compound, the Ki (Table 1) is 32.5 µM. In addition, under setting [1], the half-inhibitory concentration (IC50) came to 113 µM. With `O=C1CCC(NC(=O)c2cccn(-c3ccccc3)c2=O)C(=O)N1` (stereo not drawn) [Compound 21, N-(2,6-dioxopiperidin-3-yl)-2-oxo-1-phenyl-1,2-dihydropyridine-3-carboxamide], the Ki (Table 1) was 20.6 µM. Also, the 50% inhibitory concentration (IC50) under setting [1] amounted to 72 µM.

`Nc1ccc(C(=O)NC2CCC(=O)NC2=O)c2ncccc12` (stereo not drawn) [Compound 23, 5-Amino-N-(2,6-dioxopiperidin-3-yl) quinoline-8-carboxamide]: under “Table 1”, the Ki is 0.8 µM. Under setting [3], the IC50 amounted to 2.9 µM.

Take `O=C1CCC(NC(=O)c2ccnc(OCc3ccccc3)n2)C(=O)N1` (stereo not drawn) [Compound 7, 2-(benzyloxy)-N-(2,6-dioxopiperidin-3-yl)pyrimidine-4-carboxamide]: the inhibitory constant (Ki) (Table 1) was 8.3 µM. Moreover, the half-maximal inhibitory concentration (IC50) under setting [1] was determined as 29 µM. Regarding `O=C1CCC(NC(=O)c2ccc(OCc3ccc(CN4CCOCC4)cc3)cn2)C(=O)N1` (stereo not drawn) [Compound 11, N-(2,6-dioxopiperidin-3-yl)-5-((4-(morpholinomethyl)benzyl)oxy)picolinamide], the “CRBN Binding, probe displacement” value (at 100 μM) is 50% at 100 μM. `Nc1ccc(NC(=O)NC2CCC(=O)NC2=O)nc1` (stereo not drawn) [Compound 27, 1-(5-aminopyridin-2-yl)-3-(2,6-dioxopiperidin-3-yl)urea]: for the setting “at 100 μM”, the “CRBN Binding, probe displacement” value was 50% at 100 μM. Turning to `O=C1CCC(NC(=O)c2cccc(OCc3ccc(CN4CCOCC4)cc3)n2)C(=O)N1` (stereo not drawn) [Compound 32, N-(2,6-dioxopiperidin-3-yl)-6-((4-(morpholinomethyl)benzyl)oxy)picolinamide], the inhibition constant Ki (Table 1) was 11.4 µM. Further, the IC50 under setting [1] is 40 µM.

As for `O=C1CCC(NC(=O)c2cccn(Cc3ccccc3)c2=O)C(=O)N1` (stereo not drawn) [Compound 22, 1-Benzyl-N-(2,6-dioxopiperidin-3-yl)-2-oxo-1,2-dihydropyridine-3-carboxamide], the Ki (Table 1) was 15 µM. Further, the 50% inhibitory concentration (IC50) under setting [1] amounted to 53 µM.

For the compound `COc1cccc(C(=O)NC2CCC(=O)NC2=O)n1` (stereo not drawn) [Compound 6, N-(2,6-dioxopiperidin-3-yl)-6-methoxypicolinamide], the “CRBN Binding IC50” value under setting [2] is “Inactive”. For `O=C1CCC(NC(=O)c2cccc3nc[nH]c23)C(=O)N1` (stereo not drawn) [Compound 31, N-(2,6-dioxopiperidin-3-yl)-1H-benzo[d]imidazole-4-carboxamide], the inhibition constant Ki (Table 1) is 10.7 µM. Moreover, the IC50 under setting [1] was 37.6 µM.
